Data reported in patent US20110288086A1, “POLYCYCLIC QUINAZOLINES, PREPARATION THEREOF, AND USE THEREOF” (priority 2010, published 2011).
≈ marks a conversion by molar mass, not a printed value.

Assays:
[1] = test system: K562 human chronicity marrow leukemic cells; experiment: Tumor cell IC50, CCK-8 kit, K562; assay type: cell-based
Excerpt: (§1) The inhibitory activities of the compounds on tumor cells (IC50) in vitro
(§2) The IC50 (IC50, unit: μg/ml) values of the compounds on Hut78 T-Lymphocytic Leukemia cells, Jurkat E6-1 human T-cell lymphoma, PANC-1 human pancreatic cancer cells, A549 human lung cancer cells, K562 human chronicity marrow leukemic cells, Hep3B2. 1-7 human hepatoma carcinoma cells, MDA-MB-435s human breast carcinoma cells, Colo320 human rectal cancer cells, PC-3 human carcinoma of prostate, and HepG2 human hepatoma carcinoma cells were determined using a CCK-8 kit. Erlotinib hydrochloride was used as the positive control drug.

aurora kinase B = target: T1, aurora kinase B (Homo sapiens, UniProt Q96GD4); experiment: Aurora kinase B inhibition in vitro (Invitrogen aurora kinase screening kit PV3174); assay type: biochemical
T1 construct: purchased Invitrogen PV3174
T1 sequence (Q96GD4 whole entry): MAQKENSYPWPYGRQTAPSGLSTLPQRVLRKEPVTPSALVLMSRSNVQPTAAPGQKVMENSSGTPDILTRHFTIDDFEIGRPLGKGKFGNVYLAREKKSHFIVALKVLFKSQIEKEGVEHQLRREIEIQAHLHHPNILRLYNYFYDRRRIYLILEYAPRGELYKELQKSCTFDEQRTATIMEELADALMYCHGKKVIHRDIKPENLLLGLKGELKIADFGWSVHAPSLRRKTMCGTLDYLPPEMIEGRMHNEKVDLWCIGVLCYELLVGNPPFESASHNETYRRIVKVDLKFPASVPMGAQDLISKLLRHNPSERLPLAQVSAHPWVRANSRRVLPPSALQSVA

[2] = test system: Hut78 T-Lymphocytic Leukemia cells; experiment: Tumor cell IC50, CCK-8 kit, Hut78; assay type: cell-based; settings: Homo sapiens, Hut-78 cells
Excerpt: as §1, §2

[3] = test system: K562 human chronicity marrow leukemic cells; experiment: Tumor cell inhibition ratio, CCK-8 kit, K562; settings: K562, read-out: Antiproliferative effect (inhibition ratio) K562
Excerpt: (§3) The inhibitory activities of the compounds on tumor cells in vitro

[4] = test system: Jurkat E6-1 human T-cell lymphoma; experiment: Tumor cell inhibition ratio, CCK-8 kit, Jurkat E6-1; settings: Jurkat E6.1, read-out: Antiproliferative effect (inhibition ratio) E6-1
Excerpt: as §3

[5] = test system: A549 human lung cancer cells; experiment: Tumor cell inhibition ratio, CCK-8 kit, A549; settings: A549, read-out: Antiproliferative effect (inhibition ratio) A549
Excerpt: as §3

[6] = test system: MDA-MB-435s human breast carcinoma cells; experiment: Tumor cell inhibition ratio, CCK-8 kit, MDA-MB-435s; settings: read-out: Antiproliferative effect (inhibition ratio) 435s
Excerpt: as §3

[7] = test system: PC-3 human carcinoma of prostate; experiment: Tumor cell IC50, CCK-8 kit, PC-3; assay type: cell-based; settings: PC-3 cells
Excerpt: as §1, §2

[8] = test system: PC-3 human carcinoma of prostate; experiment: Tumor cell inhibition ratio, CCK-8 kit, PC-3; settings: read-out: Antiproliferative effect (inhibition ratio) PC-3
Excerpt: as §3

[9] = test system: PANC-1 human pancreatic cancer cells; experiment: Tumor cell IC50, CCK-8 kit, PANC-1; assay type: cell-based; settings: PANC-1 cells
Excerpt: as §1, §2

[10] = test system: A549 human lung cancer cells; experiment: Tumor cell IC50, CCK-8 kit, A549; assay type: cell-based
Excerpt: as §1, §2

[11] = test system: Jurkat E6-1 human T-cell lymphoma; experiment: Tumor cell IC50, CCK-8 kit, Jurkat E6-1; assay type: cell-based; settings: E6-1 cells
Excerpt: as §1, §2

[12] = test system: PANC-1 human pancreatic cancer cells; experiment: Tumor cell inhibition ratio, CCK-8 kit, PANC-1; settings: PANC-1, read-out: Antiproliferative effect (inhibition ratio) PANC-1
Excerpt: as §3

[13] = test system: Hep3B2.1-7 human hepatoma carcinoma cells; experiment: Tumor cell inhibition ratio, CCK-8 kit, Hep3B; settings: read-out: Antiproliferative effect (inhibition ratio) Hep3B
Excerpt: as §3

[14] = test system: Hut78 T-Lymphocytic Leukemia cells; experiment: Tumor cell inhibition ratio, CCK-8 kit, Hut78; settings: Homo sapiens, HuT78, read-out: Antiproliferative effect (inhibition ratio) Hut-78
Excerpt: as §3

EGFR tyrosine kinase = EGFR tyrosine kinase (Homo sapiens, UniProt P00533); experiment: EGFR tyrosine kinase inhibition in vitro (Invitrogen EGFR inhibitor screening kit PV3193)
Sequence of EGFR tyrosine kinase (P00533 25-1210): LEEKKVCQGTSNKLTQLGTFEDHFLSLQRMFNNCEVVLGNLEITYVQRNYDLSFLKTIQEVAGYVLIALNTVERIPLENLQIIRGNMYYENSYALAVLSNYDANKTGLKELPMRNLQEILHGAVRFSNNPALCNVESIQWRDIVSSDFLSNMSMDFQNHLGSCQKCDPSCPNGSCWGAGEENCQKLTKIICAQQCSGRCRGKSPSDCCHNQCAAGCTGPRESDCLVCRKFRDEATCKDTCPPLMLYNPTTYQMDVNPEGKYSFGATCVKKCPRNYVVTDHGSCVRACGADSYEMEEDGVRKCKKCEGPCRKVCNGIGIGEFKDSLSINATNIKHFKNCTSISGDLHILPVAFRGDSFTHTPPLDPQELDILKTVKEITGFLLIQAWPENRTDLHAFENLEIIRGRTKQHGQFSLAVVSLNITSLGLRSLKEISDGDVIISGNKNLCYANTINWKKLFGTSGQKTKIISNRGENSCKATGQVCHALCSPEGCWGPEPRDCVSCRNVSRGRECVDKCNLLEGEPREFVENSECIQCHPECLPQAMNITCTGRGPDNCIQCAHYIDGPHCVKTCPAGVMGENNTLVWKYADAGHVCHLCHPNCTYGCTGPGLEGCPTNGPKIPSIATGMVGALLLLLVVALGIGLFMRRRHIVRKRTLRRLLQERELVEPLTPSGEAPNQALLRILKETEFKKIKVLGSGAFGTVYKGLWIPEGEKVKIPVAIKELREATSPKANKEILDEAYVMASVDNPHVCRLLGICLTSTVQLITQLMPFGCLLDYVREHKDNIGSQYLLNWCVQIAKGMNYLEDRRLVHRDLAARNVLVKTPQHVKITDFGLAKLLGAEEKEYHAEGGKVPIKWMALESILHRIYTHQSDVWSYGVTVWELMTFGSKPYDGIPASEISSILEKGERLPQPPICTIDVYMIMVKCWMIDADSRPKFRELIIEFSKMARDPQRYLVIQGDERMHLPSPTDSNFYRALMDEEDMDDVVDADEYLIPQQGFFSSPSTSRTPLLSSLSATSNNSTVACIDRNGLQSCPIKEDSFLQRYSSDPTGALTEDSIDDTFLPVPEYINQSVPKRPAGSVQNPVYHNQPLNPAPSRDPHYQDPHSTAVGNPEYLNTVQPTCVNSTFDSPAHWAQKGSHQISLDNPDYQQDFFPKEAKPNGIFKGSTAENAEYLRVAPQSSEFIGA
Excerpt: The inhibitory activities of EGFR tyrosine kinase in vitro
Erlotinib hydrochloride was used as a positive control drug.

Acute Toxicity Study = settings: in vivo; preliminary screening, Bliss statistical method
Procedure: The acute toxicity experiments were carried out according to the methods disclosed in the book of Modern Pharmacological Methods, edited chiefly by Zhang Jun-Tian.

[15] = test system: Colo320 human rectal cancer cells; experiment: Tumor cell inhibition ratio, CCK-8 kit, Colo320; settings: COLO 320, read-out: Antiproliferative effect (inhibition ratio) Colo320
Excerpt: as §3

[16] = test system: Hep3B2. 1-7 human hepatoma carcinoma cells; experiment: Tumor cell IC50, CCK-8 kit, Hep3B; assay type: cell-based
Excerpt: as §1, §2

[17] = test system: MDA-MB-435s human breast carcinoma cells; experiment: Tumor cell IC50, CCK-8 kit, MDA-MB-435s; assay type: cell-based; settings: 435s cells
Excerpt: as §1, §2

[18] = test system: Colo320 human rectal cancer cells; experiment: Tumor cell IC50, CCK-8 kit, Colo320; assay type: cell-based; settings: COLO 320
Excerpt: as §1, §2

COCCOc1cc2c(cc1OCCOC)C1=Nc3cc(COS(C)(=O)=O)cc([N+](=O)[O-])c3CN1C=N2.Cl [Compound V-20, mesylate-{9-nitro-2,3-bis(2-methoxyethoxy)-8H-quinazolino[4,3-b]quinazoline-11-methanol}ester hydrochloride]
IC50 [1]: 10.1 µg/mL
The inhibition ratio of the compound on Aurora B(%) (aurora kinase B; 40 μM): 58.9%
The inhibition ratio of the compound on Aurora B(%) (aurora kinase B; 200 μM): 96.4%
IC50 [2]: 55.3 µg/mL
inhibition at 10 µM [3]: 40.7%
inhibition at 100 µM [3]: 97.4%
inhibition at 10 µM [4]: 57.9%
inhibition at 100 µM [4]: 95.6%
inhibition at 10 µM [5]: 55%
inhibition at 100 µM [5]: 90.7%
inhibition at 10 µM [6]: 65.7%
inhibition at 100 µM [6]: 93.9%
IC50 [7]: 22.7 µg/mL
inhibition at 10 µM [8]: 46.8%
inhibition at 100 µM [8]: 75.2%
IC50 [9]: 3.72 µg/mL
IC50 [10]: 12.1 µg/mL
IC50 [11]: 0.05 µg/mL
inhibition at 10 µM [12]: 54.8%
inhibition at 100 µM [12]: 88.2%
inhibition at 10 µM [13]: 60.7%
inhibition at 100 µM [13]: 92.2%
inhibition at 10 µM [14]: 52.3%
inhibition at 100 µM [14]: 82.1%
The inhibition ratio of the compound on EGFR(%) (EGFR tyrosine kinase; 40 μM): 59.9%
The inhibition ratio of the compound on EGFR(%) (EGFR tyrosine kinase; 200 μM): 98.4%
LD50 (Acute Toxicity Study): 750 mg/kg
inhibition at 10 µM [15]: 66.9%
inhibition at 100 µM [15]: 92.3%
IC50 [16]: 71.4 µg/mL
IC50 [17]: 16.8 µg/mL
IC50 [18]: 13.1 µg/mL

COCCOc1cc2c(cc1OCCOC)C1=Nc3cc(Cl)ccc3CN1C=N2 [Compound V-15, 11-chloro-2,3-bis(2-methoxyethoxy)-8H-quinazolino[4,3-b]quinazoline]
IC50 [1]: 1.5 µg/mL (≈ 3.61 µM)
The inhibition ratio of the compound on Aurora B(%) (aurora kinase B; 40 μM): 58.7%
The inhibition ratio of the compound on Aurora B(%) (aurora kinase B; 200 μM): 92.5%
IC50 [2]: 14.3 µg/mL (≈ 34.5 µM)
inhibition at 10 µM [3]: 45.2%
inhibition at 100 µM [3]: 91.5%
inhibition at 10 µM [4]: 69.5%
inhibition at 100 µM [4]: 85.8%
inhibition at 10 µM [5]: 75.6%
inhibition at 100 µM [5]: 90.8%
inhibition at 10 µM [6]: 72.6%
inhibition at 100 µM [6]: 92%
IC50 [7]: 24.6 µg/mL (≈ 59.2 µM)
inhibition at 10 µM [8]: 42.4%
inhibition at 100 µM [8]: 81.3%
IC50 [9]: 8.32 µg/mL (≈ 20 µM)
IC50 [10]: 1.01 µg/mL (≈ 2.43 µM)
IC50 [11]: 5.72 µg/mL (≈ 13.8 µM)
inhibition at 10 µM [12]: 61.8%
inhibition at 100 µM [12]: 94.1%
inhibition at 10 µM [13]: 52.4%
inhibition at 100 µM [13]: 97.4%
inhibition at 10 µM [14]: 61%
inhibition at 100 µM [14]: 93.2%
The inhibition ratio of the compound on EGFR(%) (EGFR tyrosine kinase; 40 μM): 60.7%
The inhibition ratio of the compound on EGFR(%) (EGFR tyrosine kinase; 200 μM): 94.0%
LD50 (Acute Toxicity Study): 2970 mg/kg
inhibition at 10 µM [15]: 58.3%
inhibition at 100 µM [15]: 96.5%
IC50 [16]: 6.91 µg/mL (≈ 16.6 µM)
IC50 [17]: 21 µg/mL (≈ 50.5 µM)
IC50 [18]: 55.6 µg/mL (≈ 134 µM)

COCCOc1cc2c(cc1OCCOC)C1=Nc3cccc(Br)c3CN1C=N2.Cl [Compound V-2, 9-bromo-2,3-bis(2-methoxyethoxy)-8H-quinazolino[4,3-b]quinazoline hydrochloride hemihydrate]
IC50 [1]: 34 µg/mL
The inhibition ratio of the compound on Aurora B(%) (aurora kinase B; 40 μM): 53.2%
The inhibition ratio of the compound on Aurora B(%) (aurora kinase B; 200 μM): 95.8%
IC50 [2]: 61.1 µg/mL
inhibition at 10 µM [3]: 65.4%
inhibition at 100 µM [3]: 91.1%
inhibition at 10 µM [4]: 56.2%
inhibition at 100 µM [4]: 83.1%
inhibition at 10 µM [5]: 68.6%
inhibition at 100 µM [5]: 90.7%
inhibition at 10 µM [6]: 59.8%
inhibition at 100 µM [6]: 82.6%
IC50 [7]: 4.78 µg/mL
inhibition at 10 µM [8]: 72.2%
inhibition at 100 µM [8]: 92.7%
IC50 [9]: 0.11 µg/mL
IC50 [10]: 0.67 µg/mL
IC50 [11]: 15.3 µg/mL
inhibition at 10 µM [12]: 59.7%
inhibition at 100 µM [12]: 95.9%
inhibition at 10 µM [13]: 53.5%
inhibition at 100 µM [13]: 90%
inhibition at 10 µM [14]: 28.9%
inhibition at 100 µM [14]: 73.8%
The inhibition ratio of the compound on EGFR(%) (EGFR tyrosine kinase; 40 μM): 62.9%
The inhibition ratio of the compound on EGFR(%) (EGFR tyrosine kinase; 200 μM): 97.9%
LD50 (Acute Toxicity Study): 2050 mg/kg
inhibition at 10 µM [15]: 57%
inhibition at 100 µM [15]: 89.6%
IC50 [16]: 9.83 µg/mL
IC50 [17]: 0.42 µg/mL
IC50 [18]: 32.3 µg/mL

COCCOc1cc2c(cc1OCCOC)C1=Nc3cc(Cl)ccc3C(C)N1C=N2.O=C(O)CC(O)C(=O)O (centres unmarked) [Compound V-22, 11-chloro-8-methyl-2,3-bis(2-methoxyethoxy)-8H-quinazolino[4,3-b]quinazoline malate]
IC50 [1]: 19.6 µg/mL
The inhibition ratio of the compound on Aurora B(%) (aurora kinase B; 40 μM): 57.2%
The inhibition ratio of the compound on Aurora B(%) (aurora kinase B; 200 μM): 95.6%
IC50 [2]: 11.4 µg/mL
inhibition at 10 µM [3]: 23.1%
inhibition at 100 µM [3]: 88.8%
inhibition at 10 µM [4]: 67%
inhibition at 100 µM [4]: 98%
inhibition at 10 µM [5]: 54.6%
inhibition at 100 µM [5]: 96.2%
inhibition at 10 µM [6]: 63.4%
inhibition at 100 µM [6]: 94.1%
IC50 [7]: 7.69 µg/mL
inhibition at 10 µM [8]: 64%
inhibition at 100 µM [8]: 97%
IC50 [9]: 84.3 µg/mL
IC50 [10]: 9.87 µg/mL
IC50 [11]: 13.3 µg/mL
inhibition at 10 µM [12]: 60.9%
inhibition at 100 µM [12]: 95.4%
inhibition at 10 µM [13]: 62.3%
inhibition at 100 µM [13]: 90.7%
inhibition at 10 µM [14]: 54.1%
inhibition at 100 µM [14]: 94.6%
The inhibition ratio of the compound on EGFR(%) (EGFR tyrosine kinase; 40 μM): 63.2%
The inhibition ratio of the compound on EGFR(%) (EGFR tyrosine kinase; 200 μM): 95.6%
LD50 (Acute Toxicity Study): 1340 mg/kg
inhibition at 10 µM [15]: 43.8%
inhibition at 100 µM [15]: 99%
IC50 [16]: 14.4 µg/mL
IC50 [17]: 6.18 µg/mL
IC50 [18]: 4.67 µg/mL
